Laboratory results as given in article PMC9618103, “Exploratory toxicology studies of 2,3-substituted imidazo[1,2-a]pyridines with antiparasitic and anti-inflammatory properties” (Toxicology Research, 2022).

How the values were obtained:
[1] = test system: Wistar rats; experiment: Subacute toxicity: serum and urine glucose, urinary protein excretion; format: in vivo; conditions: for Filtered Load of Glucose / Fractional Excretion of Glucose / Serum Glucose / Urinary Glucose Excretion / Urinary Protein Excretion: rats, p.o., 14 days at 10% of LD50 (CCl4, APAP: once daily, 3 days), mean ± SEM, n = 6
Protocol: (§1) For toxicity tests, acclimatized rats were randomly allocated to 12 groups (n = 12 for the control and n = 6 for the rest groups). […] Meanwhile, the aforementioned vehicles (dose volume 2 mL/kg b.w.) were administered to 3 groups. […] The animals were then housed in individual metabolic cages to collect urine for a period of 6 h and then the volume was recorded. Afterward, blood samples were obtained and the serum was separated by centrifugation at 1,620 × g for 10 min at room temperature.
Serum and urine glucose concentration were calculated using GOD-PAP kits (RANDOX, Laboratories Ltd, UK). Urinary protein was quantified using the Bradford method.[29]
(§2) Serum and urinary creatinine were determined by the Jaffe method. With this value, evaluation was made of the fractional excretion of sodium (FES), fractional excretion of potassium (FEP), and fractional excretion of glucose.[30]^,[31] The GFR was calculated from clearance of endogenous creatinine using the conventional equation:where GFR (CCr) is the creatinine clearance rate (mL/min); UCr and SCr are the creatinine concentrations (mg/dL) in urine and serum, respectively; and φ is the urinary flow rate (UFR) (mL/min). To avoid the error from the tubular secretion of creatinine found in males, only female animals were used.
(§3) The levels of sodium and potassium were measured in urine and serum using a flame photometer (Corning 400, Medfield, United States). Calculation was made of the clearance, fractional excretion, and filtered load of sodium (FLS), filtered load of potassium (FLP), and filtered load of glucose (FLG) using the conventional equations:where CX is the clearance rate of X (mL/min), CCr is the creatinine clearance rate (mL/min), UX and SX are the […] concentrations of X, respectively, φ is the UFR (mL/min), FEX is the fractional excretion (%) of X, and FLX is the filtered load of X in μEq/min (Na^+ or K^+) or mg/min (glucose).

[2] = test system: Wistar rats; experiment: Hepatic and renal reactive oxygen species (DCF formation); format: in vivo; conditions: rats, p.o., 14 days at 10% of LD50 (CCl4, APAP: once daily, 3 days), mean ± SEM, n = 6; for Renal ROS: kidney; for Hepatic ROS: liver
Protocol: (§4) For toxicity tests, acclimatized rats were randomly allocated to 12 groups (n = 12 for the control and n = 6 for the rest groups). […] Meanwhile, the aforementioned vehicles (dose volume 2 mL/kg b.w.) were administered to 3 groups. […] Upon completion of the 14-day treatments and before sample collection, the bladders of animals were emptied by gentle pressure on the lower part of the abdomen to induce urination. The animals were then housed in individual metabolic cages to collect urine for a period of 6 h and then the volume was recorded. Afterward, blood samples were obtained and the serum was separated by centrifugation at 1,620 × g for 10 min at room temperature.
Reactive oxygen species (ROS) were measured by formation of 2′,7′-dichlorofluorescein (DCF). An aliquot of 10 μL (kidney) or 5 μL (liver) of the homogenates was added to 1,940 or 1,945 μL of TRIS:HEPES (18:1) and was incubated in the presence of 50 μL of 2′,7′-dichlorofluorescein diacetate for 1 h at 37 °C. In order to quench the reaction, the mixture was chilled using an ice bath. The fluorescence was measured using a Shimadzu fluorometer (Japan; λex = 488 nm; λem = 525 nm). The results were expressed as nM DCF formed per mg protein/h.[33]
(§5) The protein concentration in homogenates was measured by the Bradford method.[29]

[3] = test system: renal secretory pathway of organic anions; experiment: Active tubular secretion of organic acids (PAH uptake in kidney cortex slices); format: in vivo, rats; conditions: for PAH t/m ratio: kidney cortex slices, PAH 1 mM, 1 h, 25 °C, rats, p.o., 14 days at 10% of LD50 (CCl4, APAP: once daily, 3 days), mean ± SEM, n = 6
Protocol: as §4
p-Aminohippuric acid (PAH) was used as an indicator of the renal secretory pathway of organic anions. Kidneys were extracted and immediately submerged in Ringer solution (pH = 7.4 and mOsm = 290 ± 10 mOsm/kg) under constant bubbling with O2/CO2 (95/5%). The kidneys were decapsulated and slices of the kidney cortex were obtained, which were then incubated in Ringer solution containing PAH (1 mM) for 1 h at 25 °C under constant bubbling with O2/CO2 (95/5%). The levels of PAH were quantified with the Bratton-Marshall method and results were expressed as the PAH tissue/medium ratio (PAH t/m ratio).[31]^,[32]

[4] = test system: NIH mice; experiment: Acute oral toxicity, median lethal dose (LD50); format: in vivo; conditions: for Category (GHS acute oral toxicity hazard category) / Hazard statement (GHS): based on oral LD50, according to GHS [39]; for Oral LD50: female NIH mice, single oral dose, 14 days observation
Protocol: All treatments were administrated orally (p.o.) according to the scheme mentioned below.
Acute toxicity tests were performed in order to measure the median lethal dose (LD50). After acclimatization, mice were randomly allocated to ten groups (n = 4), including the control group (e.g. water, Tween 80, or PO) and the experimental groups, each with a single dose of one of the IMPYs at 4 levels of dose (0.5, 1.0, 2.0, and 4.0 g/kg b.w.).
Animals were food deprived overnight prior to administration of the chemical compounds or vehicles, and food was returned 4 h after dosing. Animals had access to water ad libitum throughout the study.[27]^,[28]

[5] = test system: Wistar rats; experiment: Subacute toxicity: serum alanine aminotransferase and alkaline phosphatase activity; format: in vivo; conditions: for Alanine Aminotransferase / Alkaline Phosphatase: serum, rats, p.o., 14 days at 10% of LD50 (CCl4, APAP: once daily, 3 days), mean ± SEM, n = 6
Protocol: as §4
The activities of serum alanine aminotransferase (ALT) and alkaline phosphatase (ALP) were measured with standard kits (RANDOX, Laboratories Ltd, UK).

[6] = test system: Wistar rats; experiment: Subacute toxicity: water and electrolyte balance (osmolality, sodium, potassium, urinary flow); format: in vivo; conditions: for Filtered Load of Potassium / Filtered Load of Sodium / Fractional Excretion of Potassium / Fractional Excretion of Sodium / Serum Osmolality / Serum Potassium / Serum Sodium / U/S Osm ratio / Urinary Flow Rate / Urinary Potassium Excretion / Urinary Sodium Excretion: rats, p.o., 14 days at 10% of LD50 (CCl4, APAP: once daily, 3 days), mean ± SEM, n = 6
Protocol: as §1
Osmolality of serum and urine were assessed (in triplicate) by using a vapor pressure osmometer (Wescor 5500, Logan, United States). U/S ratio as well as osmolar (COsm) and free water clearances were calculated via conventional equations:where UOsm and SOsm are the osmolality values (mOsm/Kg) in urine and serum, respectively, and φ is the UFR (mL/min).
as §3

[7] = test system: Wistar rats; experiment: Subacute toxicity: glomerular filtration rate (creatinine clearance) and serum creatinine; format: in vivo; conditions: for Glomerular Filtration Rate / Serum Creatinine: rats, p.o., 14 days at 10% of LD50 (CCl4, APAP: once daily, 3 days), mean ± SEM, n = 6
Protocol: as §1, §2

[8] = test system: Wistar rats; experiment: Hepatic and renal lipid peroxidation (lipid-soluble fluorescence); format: in vivo; conditions: for Renal Lipoperoxidation: kidney; for Renal Lipoperoxidation / Hepatic Lipoperoxidation: rats, p.o., 14 days at 10% of LD50 (CCl4, APAP: once daily, 3 days), mean ± SEM, n = 6; for Hepatic Lipoperoxidation: liver
Protocol: as §4
Lipid peroxidation (LPO) was evaluated by the formation of lipid-soluble fluorescence, as previously described. Briefly, kidney and liver tissues were homogenized in 3 and 5 mL of phosphate buffer (0.2 M, pH = 7.4), respectively. A volume of 1 mL (kidney) or 0.8 mL (liver) of the homogenates was added to 7 mL of chloroform-methanol (2:1, v/v), and after 15 s of vortex mixing, the resulting mixture was cooled using an ice bath for 30 min to allow for phase separation. The fluorescence of the organic phase was measured using a Shimadzu fluorometer (Japan; λex = 370 nm; λem = 430 nm), whose sensitivity was adjusted to 140 fluorescence units by using 1 μg/mL of quinine sulfate in 50 mM H2SO4. The results were expressed as relative fluorescence units per milligram of protein.[33]
as §5

[9] = in comparison with the control group
[10] = in comparison to the control group

Row | SMILES | Filtered Load of Glucose [1] [mg/min] | Fractional Excretion of Glucose [1] | Serum Glucose [1] [mg/dL] | Urinary Glucose Excretion [1] [ng/min] | Urinary Protein Excretion [1] [µg/min] | Renal ROS [2] [nM de DCF/mg protein/h] | Hepatic ROS [2] [nM de DCF/mg protein/h] | PAH t/m ratio [3] | Category (GHS acute oral toxicity hazard category) [4] | Hazard statement (GHS) [4] | Oral LD50 [4] [g/kg b.w.] | Alanine Aminotransferase [5] [U/L] | Alkaline Phosphatase [5] [U/L] | Filtered Load of Potassium [6] [µEq/min] | Filtered Load of Sodium [6] [µEq/min] | Fractional Excretion of Potassium [6] [%] | Fractional Excretion of Sodium [6] [%] | Serum Osmolality [6] [mOsm/kg] | Serum Potassium [6] [mEq/L] | Serum Sodium [6] [mEq/L] | other results
1 | CCOC(=O)c1nc2ccccn2c1[N+](=O)[O-] [Compound 1b, ethyl 3-nitroimidazo[1,2-a]pyridine-2-carboxylate] | 0.31 ± 0.04 | 0.05 ± 3.9 E-3% | 121.27 ± 7.88 | 141.87 ± 18.46 | 0.57 ± 0.07 | 227.17 ± 21.01 | 285.90 ± 37.33 | 2.00 ± 0.13 | 5 | May be harmful if swallowed | >4.000 | 30.10 ± 2.99 | 101.41 ± 16.30 | 1.70 ± 0.21 | 39.31 ± 4.28 | 15.58 ± 3.10 | 0.85 ± 0.09 | 294.04 ± 0.88 | 6.74 ± 0.39 | 155.42 ± 3.63 | FEG (fractional excretion of glucose), change in words ([1]; compared to control values): increased; FLG (filtered load of glucose), change in words ([1]; compared to control values): reduced; FLS (filtered load of sodium), change in words [6, 9]: decreased; U/S Osm ratio [6]: 2.54 ± 0.20; Urinary Flow Rate [6]: 4.54 ± 0.76 µL/min; Urinary Potassium Excretion [6]: 0.24 ± 0.03 µEq/min; Urinary Sodium Excretion [6]: 0.34 ± 0.05 µEq/min; serum creatinine, change in words ([7]; compared with 1a and 3b): higher; GFR, change in words [7, 10]: lower; serum creatinine level, change in words [7, 10]: greater; Glomerular Filtration Rate [7]: 0.25 ± 0.03 mL/min; Serum Creatinine [7]: 1.38 ± 0.07 mg/dL; Renal Lipoperoxidation [8]: 0.38 ± 0.07 URF/mg protein; Hepatic Lipoperoxidation [8]: 0.74 ± 0.07 URF/mg protein
2 | N#Cc1cn2ccccc2n1 [Compound 2a, imidazo[1,2-a]pyridine-2-carbonitrile] | 0.90 ± 0.29 | 0.02 ± 3.9E-3% | 103.46 ± 3.16 | 136.89 ± 32.82 | 0.65 ± 0.13 | 171.33 ± 22.04 | 285.53 ± 42.87 | 1.07 ± 0.11 | 4 | Harmful if swallowed | 0.794 | 42.68 ± 2.04 | 104.44 ± 19.76 | 5.07 ± 1.44 | 124.49 ± 40.90 | 13.55 ± 1.23 | 0.55 ± 0.13 | 291.74 ± 1.34 | 6.03 ± 0.31 | 142.94 ± 3.88 | PAH t/m ratio, change in words ([3]; versus control (2a also versus Tween 80 and 2b)): decreased; U/S Osm ratio [6]: 3.30 ± 0.22; Urinary Flow Rate [6]: 6.44 ± 1.39 µL/min; Urinary Potassium Excretion [6]: 0.64 ± 0.16 µEq/min; Urinary Sodium Excretion [6]: 0.51 ± 0.09 µEq/min; Glomerular Filtration Rate [7]: 0.86 ± 0.28 mL/min; Serum Creatinine [7]: 0.66 ± 0.13 mg/dL; Renal Lipoperoxidation [8]: 0.30 ± 0.02 URF/mg protein; Hepatic Lipoperoxidation [8]: 0.71 ± 0.04 URF/mg protein
3 | N#Cc1nc2ccccn2c1[N+](=O)[O-] [Compound 2b, 3-nitroimidazo[1,2-a]pyridine-2-carbonitrile] | 2.29 ± 0.33 | 0.01 ± 1.8E-3% | 126.47 ± 5.03 | 109.06 ± 24.61 | 0.86 ± 0.20 | 225.78 ± 56.22 | 208.65 ± 30.24 | 2.11 ± 0.20 | 4 | Harmful if swallowed | 1.606 | 44.90 ± 2.46 | 192.21 ± 38.07 | 10.21 ± 1.12 | 267.24 ± 51.35 | 13.47 ± 1.95 | 0.88 ± 0.29 | 288.93 ± 1.51 | 5.79 ± 0.31 | 141.65 ± 15.47 | FLG (filtered load of glucose), change in words ([1]; versus 2a): increased; serum ALP, change in words ([5]; compared to the control (CCl4 also versus PO)): greater; urinary sodium excretion (USE), change in words ([6]; 2b versus control, tween 80, and 2a, 4 versus control): higher; potassium clearance, change in words ([6]; compared to the control (2b also versus 2a)): increased; urinary potassium excretion (UPE), change in words ([6]; compared to the control and 2a): increased; osmolar clearance, change in words ([6]; compared to the control group): greater; freewater clearance, change in words ([6]; compared to the control group, significant by PLS VIP and ANOVA): lower; UFR (urinary flow rate), change in words [6, 9]: increased; FES (fractional excretion of sodium), change in words ([6]; in comparison with tween 80): increased; U/S Osm ratio [6]: 3.44 ± 0.10; Urinary Flow Rate [6]: 8.29 ± 1.67 µL/min; Urinary Potassium Excretion [6]: 1.38 ± 0.21 µEq/min; Urinary Sodium Excretion [6]: 1.87 ± 0.39 µEq/min; sodium clearance, change in words ([6]; versus control, tween 80, and 2a): higher; Glomerular Filtration Rate [7]: 1.81 ± 0.26 mL/min; Serum Creatinine [7]: 0.56 ± 0.08 mg/dL; renal LPO, change in words ([8]; compared to the control group (CCl4 also versus PO)): greater; Renal Lipoperoxidation [8]: 0.47 ± 0.03 URF/mg protein; Hepatic Lipoperoxidation [8]: 0.64 ± 0.10 URF/mg protein
